Columns and labels:
PARG [1] = molecular target: T1, PARG (Homo sapiens, UniProt Q86W56); assay: Inhibition of PARG enzymatic assay (TR-FRET enzymatic IC50 assay); format: biochemical; set-up: purchased Peak Proteins; settings: hPARG 250 pM, biotinylated-PARylated PARP substrate 30 nM
Procedure, shortened: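 Compound preincubated 1 h with 250 pM His-tagged hPARG, then 30 nM biotinylated PARylated hPARP1 substrate added for 10 min; buffer 50 mM Tris-HCl pH 7.4, EDTA/EGTA, 1 mM DTT, 23° C. TR-FRET read after 1 h with anti-His ULight antibody and streptavidin-europium; inhibition scaled between DMSO and no-enzyme controls.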

[2] = test system: HCC1806-XRCC1 KD (knock down) cells; assay: Cellular viability assay (Cell Titer-Glo); format: cell-based; settings: 96 h, HCC1806-shXRCC1 cells, 4 days of incubation, read-out: PARGi cell viability
Procedure, shortened: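 XRCC1-knockdown HCC1806 cells seeded 24 h before dosing; 9-point 1:3 dilution from 30 μM top concentration, duplicates, 4-day incubation. Viability by CellTiter-Glo luminescence, normalized to DMSO wells as % of control; curves fit with 4-parameter inhibition model.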

PARG [3] = molecular target: T1, PARG; assay: Inhibition of PARG cellular assay (PAR foci in HeLa cells after MMS); format: cell-based; set-up: endogenous in cells; host or cells: HeLa; settings: compound 1 h then MMS 1 h
Procedure, shortened: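 HeLa cells pretreated with compound for 1 h, then given MMS for a further 1 h, fixed and immunostained for PAR polymer. High-content imaging quantified nuclear PAR foci intensity (PAR Foci IC50) and percent cells with foci signal >1.3 (PAR % positive IC50).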

T1 sequence (Q86W56 whole entry): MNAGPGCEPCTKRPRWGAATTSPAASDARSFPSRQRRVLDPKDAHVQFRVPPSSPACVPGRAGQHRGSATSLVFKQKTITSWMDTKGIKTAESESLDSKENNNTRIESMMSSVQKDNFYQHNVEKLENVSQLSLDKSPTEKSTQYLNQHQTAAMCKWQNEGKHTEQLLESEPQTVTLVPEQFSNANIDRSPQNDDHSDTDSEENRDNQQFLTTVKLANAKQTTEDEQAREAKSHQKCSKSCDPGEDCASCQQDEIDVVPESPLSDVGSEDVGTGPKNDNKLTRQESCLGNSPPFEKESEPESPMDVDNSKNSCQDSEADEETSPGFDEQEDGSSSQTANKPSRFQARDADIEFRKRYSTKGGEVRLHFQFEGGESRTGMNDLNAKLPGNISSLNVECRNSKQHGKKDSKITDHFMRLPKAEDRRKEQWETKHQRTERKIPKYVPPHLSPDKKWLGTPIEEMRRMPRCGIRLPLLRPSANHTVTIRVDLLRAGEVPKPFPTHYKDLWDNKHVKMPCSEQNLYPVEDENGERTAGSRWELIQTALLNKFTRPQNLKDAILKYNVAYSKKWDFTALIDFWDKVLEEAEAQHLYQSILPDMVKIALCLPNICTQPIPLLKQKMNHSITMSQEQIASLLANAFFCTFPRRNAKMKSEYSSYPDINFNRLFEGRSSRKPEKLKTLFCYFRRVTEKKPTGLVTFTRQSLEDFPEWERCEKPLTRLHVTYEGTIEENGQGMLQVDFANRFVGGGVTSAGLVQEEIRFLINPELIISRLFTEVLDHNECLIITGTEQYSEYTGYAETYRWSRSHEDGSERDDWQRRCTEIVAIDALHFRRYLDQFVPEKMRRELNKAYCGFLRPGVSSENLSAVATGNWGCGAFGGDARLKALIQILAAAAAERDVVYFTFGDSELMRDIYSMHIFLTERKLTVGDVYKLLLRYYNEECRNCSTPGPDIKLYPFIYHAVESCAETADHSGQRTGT

## C[C@H]1CN(c2cc(S(=O)(=O)NC3(C#N)CC3)cc3c2cnn3-c2nnc(C(F)F)s2)CCO1 [Example 103, (S)—N-(1-cyanocyclopropyl)-1-(5-(difluoromethyl)-1,3,4-thiadiazol-2-yl)-4-(2-methylmorpholino)-1H-indazole-6-sulfonamide]
PARG [1]
  IC50: 100 to 300 nM
[2]
  IC50: 1000 to 10000 nM
PARG [3]
  IC50: 100 to 300 nM

## C[C@H]1CN(c2cc(S(=O)(=O)NC3(C#N)CC3)cc3c2cnn3-c2nnc(C(F)F)s2)CCN1C(=O)N(C)C [Example 83, [(2S)-4-(1-[5-(difluoromethyl)(1,3,4-thiadiazol-2-yl)]-6-{[(cyanocyclopropyl)amino]sulfonyl}(1H-indazol-4-yl))-2-methylpiperazinyl]-N,N-dimethylcarboxamide]
PARG [1]
  IC50: ≤ 100 nM
[2]
  IC50: < 1000 nM
PARG [3]
  IC50: ≤ 100 nM

## CC1(NS(=O)(=O)c2cc(N3CCC4(CC3)COC4)c3cnn(-c4nnc(C(F)F)s4)c3c2)CC1 [Example 23, ({1-[5-(difluoromethyl)(1,3,4-thiadiazol-2-yl)]-4-(2-oxa-7-azaspiro[3.5]non-7-yl)(1H-indazol-6-yl)}sulfonyl)(methylcyclopropyl)amine]
PARG [1]
  IC50: ≤ 100 nM
[2]
  IC50: < 1000 nM
PARG [3]
  IC50: ≤ 100 nM

## N#CC1(NS(=O)(=O)c2cc(-c3ccccn3)c3cnn(-c4nnc(C(F)F)s4)c3c2)CC1 [Example 14, 1-[({1-[5-(difluoromethyl)(1,3,4-thiadiazol-2-yl)]-4-(2-pyridyl)-1H-indazol-6-yl}sulfonyl)amino]cyclopropanecarbonitrile]
PARG [1]
  IC50: 300 to 1000 nM
[2]
  IC50: 10000 to 20000 nM
PARG [3]
  IC50: 1000 to 10000 nM

## CC(C)C(=O)N1CCN(c2cc(S(=O)(=O)NC3(C#N)CC3)cc3c2cnn3-c2nnc(C(F)F)s2)C[C@@H]1C [Example 88, 1-[({4-[(3S)-3-methyl-4-(2-methylpropanoyl)piperazinyl]-1-[5-(difluoromethyl) (1,3,4-thiadiazol-2-yl)]-1H-indazol-6-yl}sulfonyl)amino]cyclopropanecarbonitrile]
PARG [1]
  IC50: ≤ 100 nM
[2]
  IC50: 1000 to 10000 nM
PARG [3]
  IC50: ≤ 100 nM

## N#CC1(NS(=O)(=O)c2cc(N3CCN(C(=O)N4CCC4)CC3)c3cnn(-c4nnc(C(F)F)s4)c3c2)CC1 [Example 33, 1-[({4-[4-(azetidinylcarbonyl)piperazinyl]-1-[5-(difluoromethyl)(1,3,4-thiadiazol-2-yl)]-1H-indazol-6-yl}sulfonyl)amino]cyclopropanecarbonitrile]
PARG [1]
  IC50: ≤ 100 nM
[2]
  IC50: 1000 to 10000 nM
PARG [3]
  IC50: ≤ 100 nM

## Cc1ccncc1N1CCN(c2cc(S(=O)(=O)NC3(C#N)CC3)cc3c2cnn3-c2nnc(C(F)F)s2)CC1 [Example 84, 1-[({1-[5-(difluoromethyl)(1,3,4-thiadiazol-2-yl)]-4-[4-(4-methyl(3-pyridyl))piperazinyl]-1H-indazol-6-yl}sulfonyl)amino]cyclopropanecarbonitrile]
PARG [1]
  IC50: 300 to 1000 nM
[2]
  IC50: 1000 to 10000 nM
PARG [3]
  IC50: 100 to 300 nM

## CC(C)C(=O)N1CCN(c2cc(S(=O)(=O)NC(C)(C)C)cc3c2cnn3-c2nnc(C(F)F)s2)CC1 [Example 99, 1-[4-(1-[5-(difluoromethyl)(1,3,4-thiadiazol-2-yl)]-6-{[(tert-butyl)amino]sulfonyl}(1H-indazol-4-yl))piperazinyl]-2-methylpropan-1-one]
PARG [1]
  IC50: 100 to 300 nM
[2]
  IC50: 1000 to 10000 nM
PARG [3]
  IC50: 1000 to 10000 nM

## CC(C)C(=O)N1[C@H](C)CN(c2cc(S(=O)(=O)NC3(C#N)CC3)cc3c2cnn3-c2nnc(C(F)F)s2)C[C@@H]1C [Example 89, 1-[({4-[cis-3,5-dimethyl-4-(2-methylpropanoyl)piperazinyl]-1-[5-(difluoromethyl)-(1,3,4-thiadiazol-2-yl)]-1H-indazol-6-yl}sulfonyl)amino]cyclopropanecarbonitrile]
PARG [1]
  IC50: ≤ 100 nM
[2]
  IC50: 1000 to 10000 nM
PARG [3]
  IC50: ≤ 100 nM

## CN(C)C(=O)N1CCN(c2cc(S(=O)(=O)NC3(C#N)CC3)cc3c2c(Cl)nn3-c2nnc(C(F)F)s2)CC1 [Example 115, [4-(1-[5-(difluoromethyl)(1,3,4-thiadiazol-2-yl)]-3-chloro-6-{[(cyanocyclopropyl)-amino]sulfonyl}(1H-indazol-4-yl))piperazinyl]-N,N-dimethylcarboxamide]
PARG [1]
  IC50: 300 to 1000 nM
[2]
  IC50: 10000 to 20000 nM
PARG [3]
  IC50: 300 to 1000 nM

## Cn1cc(-c2cc(S(=O)(=O)NC3(C#N)CC3)cc3c2cnn3-c2nnc(C(F)F)s2)ccc1=O [Example 5, N-(1-cyanocyclopropyl)-1-(5-(difluoromethyl)-1,3,4-thiadiazol-2-yl)-4-(1-methyl-6-oxo-1,6-dihydropyridin-3-yl)-1H-indazole-6-sulfonamide]
PARG [1]
  IC50: ≤ 100 nM
[2]
  IC50: 20000 to 30000 nM
PARG [3]
  IC50: 300 to 1000 nM

## CN1CC[C@H](C(=O)N2CCN(c3cc(S(=O)(=O)NC4(C#N)CC4)cc4c3cnn4-c3nnc(C(F)F)s3)CC2)C1 [Example 68, 1-{[(4-{4-[((3S)-1-methylpyrrolidin-3-yl)carbonyl]piperazinyl}-1-[5-(difluoromethyl)(1,3,4-thiadiazol-2-yl)]-1H-indazol-6-yl)sulfonyl]amino}cyclopropanecarbonitrile]
PARG [1]
  IC50: ≤ 100 nM
[2]
  IC50: 1000 to 10000 nM
PARG [3]
  IC50: 1000 to 10000 nM

## N#CC1(NS(=O)(=O)c2cc(C3CCC4(CC3)COC4)c3cnn(-c4nnc(C(F)F)s4)c3c2)CC1 [Example 8, 1-[({1-[5-(difluoromethyl)(1,3,4-thiadiazol-2-yl)]-4-(2-oxaspiro[3.5]non-7-yl)-1H-indazol-6-yl}sulfonyl)amino]cyclopropanecarbonitrile]
PARG [1]
  IC50: 100 to 300 nM
[2]
  IC50: 1000 to 10000 nM
PARG [3]
  IC50: ≤ 100 nM

## C[C@@H]1CN(c2cc(S(=O)(=O)NC3(C#N)CC3)cc3c2cnn3-c2nnc(C(F)F)s2)CCO1 [Example 26, 1-[({4-((2R)-2-methylmorpholin-4-yl)-1-[5-(difluoromethyl)(1,3,4-thiadiazol-2-yl)]-1H-indazol-6-yl}sulfonyl)amino]cyclopropanecarbonitrile]
PARG [1]
  IC50: ≤ 100 nM
[2]
  IC50: 1000 to 10000 nM
PARG [3]
  IC50: 100 to 300 nM

## CN(CC(F)F)C(=O)N1CCN(c2cc(S(=O)(=O)NC3(C#N)CC3)cc3c2cnn3-c2nnc(C(F)F)s2)CC1 [Example 67, N-(2,2-difluoroethyl)[4-(1-[5-(difluoromethyl)(1,3,4-thiadiazol-2-yl)]-6-{[(cyanocyclopropyl)amino]sulfonyl}(1H-indazol-4-yl))piperazinyl]-N-methylcarboxamide]
PARG [1]
  IC50: ≤ 100 nM
[2]
  IC50: < 1000 nM
PARG [3]
  IC50: ≤ 100 nM

## Cc1nnc(-n2ncc3c(N4CCN(C(=O)C(C)C)CC4)cc(S(=O)(=O)NC4(C#N)CC4)cc32)s1 [Example 97, 1-[({1-(5-methyl(1,3,4-thiadiazol-2-yl))-4-[4-(2-methylpropanoyl)piperazinyl]-1H-indazol-6-yl}sulfonyl)amino]cyclopropanecarbonitrile]
PARG [1]
  IC50: ≤ 100 nM
[2]
  IC50: 1000 to 10000 nM
PARG [3]
  IC50: 100 to 300 nM

## N#CC1(NS(=O)(=O)c2cc(C3CC3)c3cnn(-c4nnc(C(F)F)s4)c3c2)CC1 [Example 6, 1-[({1-[5-(difluoromethyl)(1,3,4-thiadiazol-2-yl)]-4-cyclopropyl-1H-indazol-6-yl}sulfonyl)amino]cyclopropanecarbonitrile]
PARG [1]
  IC50: 1000 to 10000 nM
[2]
  IC50: 20000 to 30000 nM
PARG [3]
  IC50: 1000 to 10000 nM

## N#CC1(NS(=O)(=O)c2cc(N3CCC4(CCO4)CC3)c3cnn(-c4nnc(C(F)F)s4)c3c2)CC1 [Example 41, 1-[({1-[5-(difluoromethyl)(1,3,4-thiadiazol-2-yl)]-4-(1-oxa-7-azaspiro[3.5]non-7-yl)-1H-indazol-6-yl}sulfonyl)amino]cyclopropanecarbonitrile]
PARG [1]
  IC50: 100 to 300 nM
[2]
  IC50: 1000 to 10000 nM
PARG [3]
  IC50: 300 to 1000 nM

## CC1(C(=O)N2CCN(c3cc(S(=O)(=O)NC4(C#N)CC4)cc4c3cnn4-c3nnc(C(F)F)s3)CC2)CCC1 [Example 112, 1-{[(1-[5-(difluoromethyl)(1,3,4-thiadiazol-2-yl)]-4-{4-[(methylcyclobutyl)carbonyl]piperazinyl}-1H-indazol-6-yl)sulfonyl]amino}cyclopropanecarbonitrile]
PARG [1]
  IC50: ≤ 100 nM
[2]
  IC50: < 1000 nM
PARG [3]
  IC50: ≤ 100 nM

## CC(C)(C)C(=O)N1CCN(c2cc(S(=O)(=O)NC3(C#N)CC3)cc3c2cnn3-c2nnc(C(F)F)s2)CC1 [Example 39, 1-[({1-[5-(difluoromethyl)(1,3,4-thiadiazol-2-yl)]-4-[4-(2,2-dimethylpropanoyl)piperazinyl]-1H-indazol-6-yl}sulfonyl)amino]cyclopropanecarbonitrile]
PARG [1]
  IC50: ≤ 100 nM
[2]
  IC50: < 1000 nM
PARG [3]
  IC50: ≤ 100 nM

## CCC(C)C(=O)N1CCN(c2cc(S(=O)(=O)NC3(C#N)CC3)cc3c2cnn3-c2nnc(C(F)F)s2)C[C@H]1C (stereo partly drawn) [Example 110, 1-[({4-[(3R)-3-methyl-4-(2-methylbutanoyl)piperazinyl]-1-[5-(difluoromethyl)-(1,3,4-thiadiazol-2-yl)]-1H-indazol-6-yl}sulfonyl)amino]cyclopropane carbonitrile]
PARG [1]
  IC50: ≤ 100 nM
[2]
  IC50: < 1000 nM
PARG [3]
  IC50: 100 to 300 nM

## N#CC1(NS(=O)(=O)c2cc(N3CCN(c4ccccn4)CC3)c3cnn(-c4nnc(C(F)F)s4)c3c2)CC1 [Example 93, 1-[({1-[5-(difluoromethyl)(1,3,4-thiadiazol-2-yl)]-4-(4-(2-pyridyl)piperazinyl)-1H-indazol-6-yl}sulfonyl)amino]cyclopropanecarbonitrile]
PARG [1]
  IC50: 1000 to 10000 nM
[2]
  IC50: 1000 to 10000 nM
PARG [3]
  IC50: 300 to 1000 nM
